In patent US9796720B2, “Imidazole-derived modulators of the glucocorticoid receptor” (BRISTOL-MYERS SQUIBB COMPANY, priority 2013, dated 2017):

Assays:
[1] = molecular target: human full-length glucocorticoid receptor (Homo sapiens (Human), UniProt P04150); assay: Glucocorticoid Receptor Binding Assay (II), fluorescence polarization competitor assay; conditions: recombinant human full-length GR cell lysate, Fluormone GS1; read-out: GR (Ki, nM) (measured in GR binding Assay II)
Protocol: Glucocorticoid Receptor Binding Assay (II)
In order to measure the binding of compounds on the glucocorticoid receptor a commercially available kit was used (Glucocorticoid receptor competitor assay kit, PanVera Co., Madison, Wis., P2816). Briefly, a cell lysate containing recombinantly expressed human full-length glucocorticoid receptor was mixed with a fluorescently labeled glucocorticoid (1 nM Fluormone GS1) in the presence or absence of test compound. After one hour at room temperature, the fluorescence polarization (FP) of the samples were measured.

AP-1 = assay: Cellular transrepressional assay (AP-1 luciferase reporter in A549 cells, PMA-activated); assay type: cell-based; conditions: A549 cells, 7xAP-1 luciferase, PMA 10 ng/ml, 7 hours; for EC50: read-out: AP-1 (EC50, nM) (measured in cellular transrepression assay); for Emax: read-out: AP-1 Max % inhibition (measured in cellular transrepression assay)
Protocol: Cellular Transrepressional Assay
To measure the ability of test molecules to inhibit AP-1 induced transcriptional activity we utilized an A549 cell which was stably transfected with a plasmid containing 7×AP-1 DNA binding sites (pAP-1-Luc plasmid, Stratagene Co. La Jolla, Calif.) followed by the gene for luciferase. Cells were activated with 10 ng/ml of phorbol myristic acid (PMA) plus or minus test molecules for 7 hours. After 7 hours a luciferase reagent was added to measure luciferase enzymatic activity in the cell. After a 10 minute incubation of luciferase reagent with cells, luminescence was measured in a TOPCOUNT® luminescence counter. Repression of AP-1 activity was calculated as the percentage decrease in the signal induced by PMA alone. Test molecules were analyzed in the concentration range from 0.1 nM to 40 μM. EC50s were determined by using standard curve fitting methods such as Excel fit (Microsoft Co.). An EC50 is the test molecule concentration at which there is a 50% repression of the maximal inhibition of transcription, i.e., a 50% reduction of AP-1 activity.

human full-length glucocorticoid receptor, sequence (P04150 whole entry): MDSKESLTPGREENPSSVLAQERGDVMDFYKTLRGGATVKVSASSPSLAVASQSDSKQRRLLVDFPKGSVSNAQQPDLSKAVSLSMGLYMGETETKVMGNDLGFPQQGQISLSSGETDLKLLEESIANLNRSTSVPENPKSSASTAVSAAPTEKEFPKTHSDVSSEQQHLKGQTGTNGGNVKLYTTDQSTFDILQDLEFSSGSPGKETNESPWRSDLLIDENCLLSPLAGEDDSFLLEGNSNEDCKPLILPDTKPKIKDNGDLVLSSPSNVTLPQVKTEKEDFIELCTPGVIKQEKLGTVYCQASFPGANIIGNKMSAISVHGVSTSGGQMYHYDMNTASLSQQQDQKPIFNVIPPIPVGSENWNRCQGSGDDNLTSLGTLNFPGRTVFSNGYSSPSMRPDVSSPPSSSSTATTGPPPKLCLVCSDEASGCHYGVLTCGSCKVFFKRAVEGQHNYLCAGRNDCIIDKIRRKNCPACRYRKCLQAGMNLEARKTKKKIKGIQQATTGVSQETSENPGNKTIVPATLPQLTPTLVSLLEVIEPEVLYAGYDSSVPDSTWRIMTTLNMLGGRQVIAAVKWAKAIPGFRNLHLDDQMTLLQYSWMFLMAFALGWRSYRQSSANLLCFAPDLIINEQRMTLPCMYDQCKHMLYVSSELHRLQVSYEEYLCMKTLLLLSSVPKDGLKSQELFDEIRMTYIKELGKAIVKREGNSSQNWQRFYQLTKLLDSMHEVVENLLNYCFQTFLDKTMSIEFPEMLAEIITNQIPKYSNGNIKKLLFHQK

SMILES	Ki [1] [nM]	EC50 (AP-1) [nM]	Emax (AP-1) [%]
COC(=O)c1ccc(-c2ccc3c(n2)Oc2c(F)cccc2[C@@H]3C(C)(C)c2nc3nccnc3[nH]2)cn1 [Example 26, (S)-Methyl 5-(5-(2-(1H-imidazo[4,5-b]pyrazin-2-yl)propan-2-yl)-9-fluoro-5H-chromeno[2,3-b]pyridin-2-yl)picolinate]	144	5000	14.3
CC(C)(c1nc2nccnc2[nH]1)[C@@H]1c2ccc(-c3ccc(F)nc3)nc2Oc2c(F)cccc21 [Example 28, (S)-5-(2-(1H-Imidazo[4,5-b]pyrazin-2-yl)propan-2-yl)-9-fluoro-2-(6-fluoropyridin-3-yl)-5H-chromeno[2,3-b]pyridine]	28.6	5000	16.4
Cn1nnnc1-c1ccc(-c2ccc3c(n2)Oc2c(F)cccc2[C@@H]3C(C)(C)c2nc3nccnc3[nH]2)cc1 [Example 31, (S)-5-(2-(1H-Imidazo[4,5-b]pyrazin-2-yl)propan-2-yl)-9-fluoro-2-(4-(1-methyl-1H-tetrazol-5-yl)phenyl)-5H-chromeno[2,3-b]pyridine]	1.94	15	48.6

Further compounds by falling Ki [1], results first:

Ki [1] [nM]	EC50 (AP-1) [nM]	SMILES	Emax (AP-1) [%]
30.3	179	CC(C)(c1nc2nccnc2[nH]1)[C@@H]1c2ccc(-c3ccc(C(=O)N4CCOCC4)nc3)nc2Oc2c(F)cccc21 [Example 30, (S)-(5-(5-(2-(1H-Imidazo[4,5-b]pyrazin-2-yl)propan-2-yl)-9-fluoro-5H-chromeno[2,3-b]pyridin-2-yl)pyridin-2-yl)(morpholino)methanone]	57
9.3	28.4	CC(C)(O)c1ccc(-c2ccc3c(n2)Oc2c(F)cccc2[C@@H]3C(C)(C)c2nc3nccnc3[nH]2)cn1 [Example 27, (S)-2-(5-(5-(2-(1H-Imidazo[4,5-b]pyrazin-2-yl)propan-2-yl)-9-fluoro-5H-chromeno[2,3-b]pyridin-2-yl)pyridin-2-yl)propan-2-ol]	53.6
5.43	129	CN(C)c1ccc(-c2ccc3c(n2)Oc2c(F)cccc2[C@@H]3C(C)(C)c2nc3nccnc3[nH]2)cn1 [Example 29, (S)-5-(5-(2-(1H-Imidazo[4,5-b]pyrazin-2-yl)propan-2-yl)-9-fluoro-5H-chromeno[2,3-b]pyridin-2-yl)-N,N-dimethylpyridin-2-amine]	44.9
2.78	31.7	CC(C)Oc1ccc(-c2ccc3c(n2)Oc2c(F)cccc2[C@@H]3C(C)(C)c2nc3nccnc3[nH]2)cn1 [Example 25, (S)-5-(2-(1H-Imidazo[4,5-b]pyrazin-2-yl)propan-2-yl)-9-fluoro-2-(6-isopropoxypyridin-3-yl)-5H-chromeno[2,3-b]pyridine]	57.8
1.9	37.3	CC(C)(c1nc2nccnc2[nH]1)[C@@H]1c2ccc(-c3ccc(N4CCCC4=O)cc3)nc2Oc2c(F)cccc21 [Example 24, (S)-1-(4-(5-(2-(1H-Imidazo[4,5-b]pyrazin-2-yl)propan-2-yl)-9-fluoro-5H-chromeno[2,3-b]pyridin-2-yl)phenyl)pyrrolidin-2-one]	69.4
